In BindingDB's records for doi:10.1016/s0960-894x(01)00378-x (The R. W. Johnson Pharmaceutical Research Institute, 2001):

Key:
[1] = In vitro inhibition of human platelet aggregation induced by alpha-thrombin (at a concentration of 0.15 nM)
[2] = target: T1, Proteinase-activated receptor 1 (Homo sapiens, UniProt P25116); experiment: In vitro inhibition of human platelet aggregation induced by SFLLRN-NH2 (at a concentration of 2 uM)
T1 sequence (P25116 whole entry): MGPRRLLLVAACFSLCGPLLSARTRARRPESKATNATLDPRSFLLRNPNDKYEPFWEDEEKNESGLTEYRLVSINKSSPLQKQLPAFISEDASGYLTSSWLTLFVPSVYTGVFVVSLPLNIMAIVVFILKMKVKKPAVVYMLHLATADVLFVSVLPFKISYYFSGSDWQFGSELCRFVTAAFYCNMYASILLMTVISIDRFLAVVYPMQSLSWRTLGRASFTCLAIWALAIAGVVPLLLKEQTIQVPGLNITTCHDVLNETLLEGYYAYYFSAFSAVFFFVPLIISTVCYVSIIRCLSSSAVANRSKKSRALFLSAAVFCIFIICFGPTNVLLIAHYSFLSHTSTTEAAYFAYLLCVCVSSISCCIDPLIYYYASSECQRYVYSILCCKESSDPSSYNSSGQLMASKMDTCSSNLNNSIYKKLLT

[3] = target: T1, Proteinase-activated receptor 1; experiment: In vitro inhibition of human platelet aggregation induced by alpha-thrombin (at a concentration of 0.15 nM)
[4] = In vitro inhibition of human platelet aggregation induced by SFLLRN-NH2 (at a concentration of 2 uM)
[5] = In vitro inhibition of human platelet aggregation induced by alpha-thrombin (at a concentration of 0.15 nM); remark: listed apart in the source

| Compound | IC50 [1] | IC50 [4] | IC50 [5] | further results |
| --- | --- | --- | --- | --- |
| COC(=O)c1ccc(Cn2cc(CN3CCCC3)c3ccc(NC(=O)N[C@@H](Cc4ccc(OC)cc4)C(=O)N[C@@H](CCCNC(=N)N)C(=O)NCC4CCCCC4)cc32)cc1 [4-(6-{3-[(S)-1-[(S)-1-(Cyclohexylmethyl-carbamoyl)-4-guanidino-butylcarbamoyl]-2-(4-methoxy-phenyl)-ethyl]-ureido}-3-pyrrolidin-1-ylmethyl-indol-1-ylmethyl)-benzoic acid methyl ester] | 38700 nM |  |  |  |
| N=C(N)NCCC[C@H](NC(=O)[C@H](Cc1ccc(F)c(F)c1)NC(=O)Nc1ccc2c(CN3CCCC3)cn(Cc3c(Cl)cccc3Cl)c2c1)C(=O)NCc1ccccc1 [(S)-2-[(S)-2-{3-[1-(2,6-Dichloro-benzyl)-3-pyrrolidin-1-ylmethyl-1H-indol-6-yl]-ureido}-3-(3,4-difluoro-phenyl)-propionylamino]-5-guanidino-pentanoic acid benzylamide] | 570 nM |  |  |  |
| NC(N)=NCCCC(NC(=O)C(Cc1ccc([N+](=O)[O-])cc1)NC(=O)Nc1ccc2c(CN3CCCC3)cn(Cc3ccc(F)cc3)c2c1)C(=O)NCc1ccccc1 [(S)-2-[(S)-2-{3-[1-(4-Fluoro-benzyl)-3-pyrrolidin-1-ylmethyl-1H-indol-6-yl]-ureido}-3-(4-nitro-phenyl)-propionylamino]-5-guanidino-pentanoic acid benzylamide] |  |  |  | IC50 [2]: 130 nM; IC50 [3]: 6100 nM |
| CCN(CC)Cc1cn(Cc2ccccc2C)c2cc(NC(=O)N[C@@H](Cc3ccc(OC)cc3)C(=O)N[C@@H](CCCNC(=N)N)C(=O)NCCCc3ccccc3)ccc12 [(S)-2-[(S)-2-{3-[3-Diethylaminomethyl-1-(2-methyl-benzyl)-1H-indol-6-yl]-ureido}-3-(4-methoxy-phenyl)-propionylamino]-5-guanidino-pentanoic acid (3-phenyl-propyl)-amide] | 3000 nM | 230 nM |  |  |
| CCN(CC)Cc1cn(Cc2cccc(C)c2)c2cc(NC(=O)N[C@@H](Cc3ccc(OC)cc3)C(=O)N[C@@H](CCCNC(=N)N)C(=O)NCCCc3ccccc3)ccc12 [(S)-2-[(S)-2-{3-[3-Diethylaminomethyl-1-(3-methyl-benzyl)-1H-indol-6-yl]-ureido}-3-(4-methoxy-phenyl)-propionylamino]-5-guanidino-pentanoic acid (3-phenyl-propyl)-amide] |  | 210 nM | 1300 nM |  |
| Cc1ccccc1Cn1cc(CN2CCCC2)c2ccc(NC(=O)NC(Cc3ccc([N+](=O)[O-])cc3)C(=O)NC(CCCNC(=N)N)C(=O)NCc3ccccc3)cc21 [(S)-5-Guanidino-2-[(S)-2-{3-[1-(2-methyl-benzyl)-3-pyrrolidin-1-ylmethyl-1H-indol-6-yl]-ureido}-3-(4-nitro-phenyl)-propionylamino]-pentanoic acid benzylamide] |  |  |  | IC50 [2]: 150 nM |
| COc1ccc(C[C@H](NC(=O)Nc2ccc3c(CN4CCCC4)cn(Cc4c(Cl)cccc4Cl)c3c2)C(=O)N[C@@H](CCCN=C(N)N)C(=O)NCc2ccccc2)cc1 [RWJ-54003] |  |  |  | IC50 [3]: 900 nM |

More lines, main results first:

| IC50 [1] | IC50 [4] | IC50 [5] | Compound | further results |
| --- | --- | --- | --- | --- |
|  | 900 nM | 11100 nM | CCN(CC)Cc1cn(Cc2ccc(F)cc2)c2cc(NC(=O)N[C@@H](Cc3ccc(OC)cc3)C(=O)N[C@@H](CCCNC(=N)N)C(=O)NCC3CCCCC3)ccc12 [(S)-2-[(S)-2-{3-[3-Diethylaminomethyl-1-(4-fluoro-benzyl)-1H-indol-6-yl]-ureido}-3-(4-methoxy-phenyl)-propionylamino]-5-guanidino-pentanoic acid cyclohexylmethyl-amide] |  |
|  | 310 nM | 4800 nM | COc1ccc(C[C@H](NC(=O)Nc2ccc3c(CN4CCCCC4)cn(Cc4ccccc4C)c3c2)C(=O)N[C@@H](CCCNC(=N)N)C(=O)NCCCc2ccccc2)cc1 [(S)-5-Guanidino-2-((S)-3-(4-methoxy-phenyl)-2-{3-[1-(2-methyl-benzyl)-3-piperidin-1-ylmethyl-1H-indol-6-yl]-ureido}-propionylamino)-pentanoic acid (3-phenyl-propyl)-amide] |  |
|  | 900 nM | 11700 nM | COc1ccc(C[C@H](NC(=O)Nc2ccc3c(CN4CCCCC4)cn(Cc4cccc(C)c4)c3c2)C(=O)N[C@@H](CCCNC(=N)N)C(=O)NCC2CCCCC2)cc1 [(S)-5-Guanidino-2-((S)-3-(4-methoxy-phenyl)-2-{3-[1-(3-methyl-benzyl)-3-piperidin-1-ylmethyl-1H-indol-6-yl]-ureido}-propionylamino)-pentanoic acid cyclohexylmethyl-amide] |  |
| 700 nM | 100 nM |  | NCCCC[C@H](NC(=O)[C@H](Cc1ccc(F)c(F)c1)NC(=O)Nc1ccc2c(CN3CCCC3)cn(Cc3c(Cl)cccc3Cl)c2c1)C(=O)NCc1ccccc1 [(S)-6-Amino-2-[(S)-2-{3-[1-(2,6-dichloro-benzyl)-3-pyrrolidin-1-ylmethyl-1H-indol-6-yl]-ureido}-3-(3,4-difluoro-phenyl)-propionylamino]-hexanoic acid benzylamide] |  |
| 460 nM | 200 nM |  | O=C(Nc1ccc2c(CN3CCCC3)cn(Cc3c(Cl)cccc3Cl)c2c1)N[C@@H](Cc1ccc(F)c(F)c1)C(=O)NC(Cc1cnc[nH]1)C(=O)NCc1ccccc1 (stereo partly drawn) [(S)-N-[1-Benzylcarbamoyl-2-(3H-imidazol-4-yl)-ethyl]-2-{3-[1-(2,6-dichloro-benzyl)-3-pyrrolidin-1-ylmethyl-1H-indol-6-yl]-ureido}-3-(3,4-difluoro-phenyl)-propionamide] |  |
